# Assay results taken from PubChem BioAssay (NCI).
#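 Five concentrations, 48 hours, 96-well plates. Definition used: TGI = concentration required for complete inhibition of growth.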
# What was measured:
# Experiment in all cases: NCI tumour cell line growth inhibition, 48 h
# [1] = tested on: 786-0 renal
# [2] = tested on: A498 renal
# [3] = tested on: A549 NSCLC
# [4] = tested on: ACHN renal
# [5] = tested on: BT-549 breast
# [6] = tested on: CAKI-1 renal
# [7] = tested on: CCRF-CEM leukemia
# [8] = tested on: COLO 205 colon
# [9] = tested on: DU-145 prostate
# [10] = tested on: EKVX NSCLC
# [11] = tested on: HCC-2998 colon
# [12] = tested on: HCT-116 colon
# [13] = tested on: HCT-15 colon
# [14] = tested on: HL-60(TB) leukemia
# [15] = tested on: HOP-62 NSCLC
# [16] = tested on: HOP-92 NSCLC
# [17] = tested on: HS 578T breast
# [18] = tested on: HT29 colon
# [19] = tested on: IGROV1 ovarian
# [20] = tested on: K-562 leukemia
# [21] = tested on: KM12 colon
# [22] = tested on: LOX IMVI melanoma
# [23] = tested on: M14 melanoma
# [24] = tested on: MALME-3M melanoma
# [25] = tested on: MCF7 breast
# [26] = tested on: MDA-MB-231 breast
# [27] = tested on: MDA-MB-435
# [28] = tested on: MDA-N
# [29] = tested on: NCI-H226 lung
# [30] = tested on: NCI-H23 lung
# [31] = tested on: NCI-H460 lung
# [32] = tested on: NCI-H522 lung
# [33] = tested on: NCI/ADR-RES ovarian
# [34] = tested on: OVCAR-3 ovarian
# [35] = tested on: OVCAR-4 ovarian
# [36] = tested on: OVCAR-5 ovarian
# [37] = tested on: OVCAR-8 ovarian
# [38] = tested on: PC-3 prostate
# [39] = tested on: RPMI-8226 leukemia
# [40] = tested on: RXF 393 renal
# [41] = tested on: SF-268 CNS
# [42] = tested on: SF-295 CNS
# [43] = tested on: SF-539 CNS
# [44] = tested on: SK-MEL-2 melanoma
# [45] = tested on: SK-MEL-28 melanoma
# [46] = tested on: SK-MEL-5 melanoma
# [47] = tested on: SK-OV-3 ovarian
# [48] = tested on: SN12C renal
# [49] = tested on: SNB-19 CNS
# [50] = tested on: SNB-75 CNS
# [51] = tested on: SR leukemia
# [52] = tested on: SW-620 colon
# [53] = tested on: T-47D breast
# [54] = tested on: TK-10 renal
# [55] = tested on: U251 CNS
# [56] = tested on: UACC-257 melanoma
# [57] = tested on: UACC-62 melanoma
# [58] = tested on: UO-31 renal
# [59] = tested on: MOLT-4 leukemia
structure (smiles),measurement,setting,value
CCCCC(=O)NC1(c2cc3ccccc3s2)CCCCC1,TGI,[1],> 100 µM
same,TGI,[2],> 100 µM
same,TGI,[3],> 100 µM
same,TGI,[4],> 100 µM
same,TGI,[5],> 100 µM
same,TGI,[6],> 100 µM
same,TGI,[7],> 100 µM
same,TGI,[8],> 100 µM
same,TGI,[9],> 100 µM
same,TGI,[10],> 100 µM
same,TGI,[11],> 100 µM
same,TGI,[12],> 100 µM
same,TGI,[13],> 100 µM
same,TGI,[14],76.5 µM
same,TGI,[15],> 100 µM
same,TGI,[16],> 100 µM
same,TGI,[17],> 100 µM
same,TGI,[18],> 100 µM
same,TGI,[19],> 100 µM
same,TGI,[20],> 100 µM
same,TGI,[21],> 100 µM
same,TGI,[22],> 100 µM
same,TGI,[23],> 100 µM
same,TGI,[24],> 100 µM
same,TGI,[25],> 100 µM
same,TGI,[26],> 100 µM
same,TGI,[27],> 100 µM
same,TGI,[28],> 100 µM
same,TGI,[29],> 100 µM
same,TGI,[30],> 100 µM
same,TGI,[31],> 100 µM
same,TGI,[32],> 100 µM
same,TGI,[33],> 100 µM
same,TGI,[34],> 100 µM
same,TGI,[35],> 100 µM
same,TGI,[36],> 100 µM
same,TGI,[37],> 100 µM
same,TGI,[38],> 100 µM
same,TGI,[39],> 100 µM
same,TGI,[40],> 100 µM
same,TGI,[41],> 100 µM
same,TGI,[42],> 100 µM
same,TGI,[43],> 100 µM
same,TGI,[44],> 100 µM
same,TGI,[45],> 100 µM
same,TGI,[46],> 100 µM
same,TGI,[47],> 100 µM
same,TGI,[48],> 100 µM
same,TGI,[49],> 100 µM
same,TGI,[50],> 100 µM
same,TGI,[51],> 100 µM
same,TGI,[52],> 100 µM
same,TGI,[53],> 100 µM
same,TGI,[54],> 100 µM
same,TGI,[55],> 100 µM
same,TGI,[56],> 100 µM
same,TGI,[57],> 100 µM
same,TGI,[58],> 100 µM
CC1(C)CCCCCCC2OC2CCCCCC(C)(C)C1=O (configuration not stated),TGI,[1],> 100 µM
same,TGI,[2],> 100 µM
same,TGI,[3],> 100 µM
same,TGI,[4],> 65 µM
same,TGI,[5],> 76.6 µM
same,TGI,[6],> 100 µM
same,TGI,[7],> 69.4 µM
same,TGI,[8],29.5 µM
same,TGI,[9],> 100 µM
same,TGI,[10],> 100 µM
same,TGI,[11],> 70.8 µM
same,TGI,[12],> 100 µM
same,TGI,[13],> 100 µM
same,TGI,[14],57 µM
same,TGI,[15],> 100 µM
same,TGI,[16],> 81 µM
same,TGI,[17],> 100 µM
same,TGI,[18],> 60.5 µM
same,TGI,[19],> 100 µM
same,TGI,[20],> 82.6 µM
same,TGI,[21],97 µM
same,TGI,[22],> 100 µM
same,TGI,[23],> 100 µM
same,TGI,[24],> 100 µM
same,TGI,[25],> 73.3 µM
same,TGI,[26],> 100 µM
same,TGI,[27],> 100 µM
same,TGI,[28],> 100 µM
same,TGI,[59],61.2 µM
same,TGI,[29],> 94.4 µM
same,TGI,[30],> 100 µM
same,TGI,[31],> 100 µM
same,TGI,[32],> 80.4 µM
same,TGI,[33],> 88.2 µM
same,TGI,[34],> 100 µM
same,TGI,[35],> 100 µM
same,TGI,[36],> 100 µM
same,TGI,[37],> 100 µM
same,TGI,[38],> 94.6 µM
same,TGI,[39],> 95 µM
same,TGI,[40],49.5 µM
same,TGI,[41],> 100 µM
same,TGI,[42],> 67.3 µM
same,TGI,[43],> 100 µM
same,TGI,[44],> 65.4 µM
same,TGI,[45],> 100 µM
same,TGI,[46],50.2 µM
same,TGI,[47],> 100 µM
same,TGI,[48],> 64 µM
same,TGI,[49],> 100 µM
same,TGI,[50],> 100 µM
same,TGI,[51],> 70 µM
same,TGI,[52],> 100 µM
same,TGI,[53],> 100 µM
same,TGI,[54],> 100 µM
same,TGI,[55],63.2 µM
same,TGI,[56],> 93.5 µM
same,TGI,[57],> 100 µM
same,TGI,[58],88.2 µM
